According to patent US20080194656A1, “Benzotriazole Derivatives as Cannabinoid Receptor Antagonists” (priority 2005, published 2008):

Experiments:
[1] = target: T1, Human Cb-1 receptor (transfected CHO-K1 cell membranes) (Homo sapiens, UniProt P21554); assay: Cb-1 competition receptor binding in cell membranes ([3H]CP55,940 displacement); conditions: 3H-CP55,940 0.5 nM, 1 hour at 25° C.; for IC50: read-out: Example C1 Binding pIC50 (converted)
T1 construct: host or cells: CHO-K1
Description: (§1) Human Cb-1 transfected CHO-K1 cells (Euroscreen; Cat # ES-110-C; hCB1-D1; accession n′ Swissprot X54937) were maintained as described previously (Felder et al., 1995 & 1998). For membrane preparation, cells were cultured in DMEM/Ham's F12 medium containing 10% (v/v) heat inactivated FCS, 100 U/ml penicillin and 100 μg/ml streptomycin, 100 μg/ml pyruvate and 292 μg/ml L-glutamine under 5% CO2 at 37° C. in roller bottles, with medium changed 3 times a week. When 90% confluent, cells collected by trypsinisation and re-seeded at 1:10 or 1:20 dilutions to fresh roller bottles. For measurement of cAMP formation, cells were cultured to 90% confluency in Falcon T175 flasks.
Prior to membrane preparation, confluent cells were treated with 5 mM butyrate for 24 hours. Medium was aspirated and cells were scraped from bottles in 50 ml homogenization buffer consisting of 15 mM Tris-HCl, pH 7.4 containing 2 mM MgCl2, 0.3 mM EDTA and 1 mM EGTA. The cells were then centrifuged for 10 minutes at 1700×g at 4° C. and homogenized in 20 ml same buffer with an Ultra Turrax. The crude membrane pellet was collected by two consecutive centrifugation steps at 20,000×g for 10 min and for 20 min at 25,000×g respectively, separated by a washing/homogenization step in 10 ml homogenization buffer. Final cell pellets were resuspended in a volume of 6 ml/roller bottle in stock buffer consisting of 7.5 mM Tris-HCl, pH 7.4, containing 12.5 mM MgCl2, 0.3 mM EDTA, 1 mM EGTA and 250 mM sucrose. Protein content was assayed by the BioRad method (Bradford, 1976).
Competition binding assays were performed in triplicate in a final volume of 0.5 ml containing incubation buffer (50 mM Tris-HCl, pH 7.4 containing 2.5 mM EDTA and 0.5% (w/v) BSA), 50 μl ^3H-CP55,940 (0.5 nM final), 0.4 ml transfected CHO-K1 membrane proteins (60 μg/ml) in the presence or absence of test compound. Non-specific binding determined using 1 μM CP55,940. The samples were incubated for 1 hour at 25° C., being terminated by rapid filtration on GF/C filters presoaked in 0.1% polyethylenimine, using a Unifilter-96 Harvester (PerkinElmer N.V./S.A. Belgium). Filters were washed 6 times with cold washing buffer (50 mM Tris-HCl, pH 7.4 containing 0.1% BSA), plates air-dried overnight before bound [^3H]CP55,940 was measured by liquid scintillation counting using a TopCount NXT microplate scintillation counter (Packard BioScience/ PerkinElmer N.V./S.A. Belgium). IC50 values were determined by a single-site binding equation (GraphPad Prism, San Diego, Calif., U.S.A.).

[2] = target: T2, Cb-1 receptor stably expressed in CHO-K1 cells (Homo sapiens, UniProt P21554); assay: Cyclic AMP accumulation (HTRF cAMP assay, antagonism of CP55940); assay type: cell-based; conditions: forskolin and CP55940 (agonist), 30 min at 25° C.; for IC50: read-out: Example C2 cAMP (antagonism) pIC50 (converted)
T2 construct: host or cells: CHO-K1
T2 sequence (P21554 whole entry): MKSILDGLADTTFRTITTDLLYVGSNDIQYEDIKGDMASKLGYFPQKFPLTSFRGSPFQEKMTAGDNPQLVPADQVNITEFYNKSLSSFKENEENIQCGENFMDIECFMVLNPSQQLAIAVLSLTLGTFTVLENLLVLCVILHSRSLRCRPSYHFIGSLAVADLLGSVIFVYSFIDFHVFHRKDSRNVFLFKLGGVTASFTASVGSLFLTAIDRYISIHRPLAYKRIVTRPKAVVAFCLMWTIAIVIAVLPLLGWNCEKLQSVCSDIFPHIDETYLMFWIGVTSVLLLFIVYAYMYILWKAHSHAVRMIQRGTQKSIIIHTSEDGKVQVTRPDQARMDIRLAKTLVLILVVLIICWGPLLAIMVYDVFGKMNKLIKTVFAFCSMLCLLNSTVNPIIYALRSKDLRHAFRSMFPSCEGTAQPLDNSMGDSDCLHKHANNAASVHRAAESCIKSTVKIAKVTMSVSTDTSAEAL
Description: as §1
Using the commercially available dynamic homogenous time-resolved fluorescence cAMP assay, the cAMP measurements on CHO-K1 cells that stably express the Cb-1 receptor were performed. Cells were detached from flasks using 3 ml EDTA (0.04% (w/v) in PBS) and resuspended in PBS (without Ca^2+ and Mg^2+) and centrifuged at 500×g for 5 min. Cell pellet was resuspended in stimulation buffer (HBSS medium containing 1 mM IBMX, 5 mM Hepes, 10 mM MgCl2 and 0.1% (w/v) BSA) and were dispensed into a black 96 well plate at a cell density of 20000 cells per well. After 30 min at 25° C., an equal volume of stimulation buffer containing forskolin and CP55940 (agonist) and/or a Cb-1 antagonist was added to the cells. After 30 min incubation at 25° C., cAMP detection was performed by addition of an equal volume of cAMP-XL665 and anti-cAMP-cryptate conjugates. The plate was incubated for a further 60 min at 25° C. and then measured with Discovery (PerkinElmer N.V./S.A. Belgium).

[3] = test system: food intake in rats and mice; assay: Feeding experiments, acute dose-response on food intake; assay type: in vivo; conditions: oral single dose, food intake 1 h after lights out
Description: Male Sprague Dawley rats (weighing 250-300 g at the time of experiment) were obtained from Charles River (Sulzfeld, Kisslegg, Germany). Male C57Bl/6J Rj mice (weighing 25-30 g at the time of experiments) were obtained from Janvier (Le Genest-St-Isle, France). All animals had free access to water and were individually housed under 12-h light:dark cycle (lights on at 22:00 h) and at a temperature of 19-22° C. and 35-40% humidity in Techniplast IVC cages adapted to fit external food hoppers. Rats and mice were fed a standard purified diet containing 10% kcal fat (Dyets, Inc. Bethlehem, USA; or Research diets, New Brunswick, N.J., USA). All experiments were carried out in accordance with the European Communities Council Directives (86/609/EEC) and were approved by the local ethical committee.
An acute dose-response analysis for each compound was performed. All rats and mice were randomly assigned and orally dosed with either vehicle (10% cyclodextran containing 0.9% (w/v) saline) or vehicle containing a single concentration of compound (0.16, 0.63, 2.50, 10.0, 40.0 mg/kg at 10 ml/kg) so that the average latency from time of drug administration and lights out was 45 minutes, with 6 animals per group. Food intake was measured 1, 2, 4, 6 and 24 hours after lights out.

[4] = target: T1, Human Cb-1 receptor (transfected CHO-K1 cell membranes); assay: Cb-1 competition receptor binding in cell membranes ([3H]CP55,940 displacement); conditions: statement on the enantiomers of the racemate, no test named

T1 sequence (P21554 whole entry): as above

| Structure (SMILES) | IC50 [1] [nM] | Example C1 Binding pIC50 [1] | further results |
| --- | --- | --- | --- |
| Clc1ccc(C(c2ccc3nnn(C4CCCCC4)c3c2)n2cncn2)cc1 (racemic) [Intermediate 7, 1H-Benzotriazole, 6-[(4-chlorophenyl)-1H-1,2,4-triazol-1-ylmethyl]-1-cyclohexyl-] | 288 |  | IC50 [2]: 36.3 nM; ED50 ([3]; po, 1 h, read-out: Example C3 Food intake at 1 h ED50): 3.28 mg/kg |
| Clc1ccc([C@H](c2ccc3nnn(C4CCCCC4)c3c2)n2cncn2)cc1 (single isomer, unassigned) [Compound 1] | 8910 |  | Example C3 Food intake at 1 h ED50 [3]: >100 mg/kg |
| Clc1ccc([C@H](c2ccc3nnn(C4CCCCC4)c3c2)n2cncn2)cc1 (single isomer, unassigned) [Compound 2, 1H-Benzotriazole, (−)-6-[(4-chlorophenyl)-1H-1,2,4-triazol-1-ylmethyl]-1-cyclohexyl-] | 141 |  | Example C3 Food intake at 1 h ED50 [3]: 2.69 mg/kg |
| Clc1ccc([C@H](c2ccc3nnn(C4CCCCC4)c3c2)n2cncn2)cc1 [Compound 2, 1H-Benzotriazole, (−)-6-[(4-chlorophenyl)-1H-1,2,4-triazol-1-ylmethyl]-1-cyclohexyl-] |  |  | active as a CB1 modulator [4]: active |
| CC(C)CCn1nnc2ccc(C(c3ccc(Cl)cc3)n3ccnc3)cc21 (stereo not drawn) [Compound 4] | 933 |  | IC50 [2]: 339 nM |
| Clc1ccc(Cn2nnc3ccc(C(c4ccc(Cl)cc4)n4ccnc4)cc32)cc1 (stereo not drawn) [Compound 5] | 832 |  | IC50 [2]: 955 nM |
| Cn1nnc2ccc(C(c3ccc(Cl)cc3)c3nccs3)cc21 (stereo not drawn) [Compound 6] | 5370 |  |  |
| CC(C)n1nnc2ccc(C(c3ccc(Cl)cc3)n3cncn3)cc21 (stereo not drawn) [Compound 7] |  | 6.69 | Example C2 cAMP (antagonism) pIC50 [2]: 6.9 |
| CCCCn1nnc2ccc(C(c3ccc(Cl)cc3)n3cncn3)cc21 (stereo not drawn) [Compound 8] |  | 6.45 | Example C2 cAMP (antagonism) pIC50 [2]: 6.62 |
| c1ccc(C(c2ccc3nnn(C4CCCCC4)c3c2)n2ccnc2)cc1 (stereo not drawn) [Compound 9] |  | 6.05 | Example C2 cAMP (antagonism) pIC50 [2]: 5.79 |
| Clc1ccc(C(c2ccc3nnn(-c4ccccc4)c3c2)n2ccnc2)cc1 (stereo not drawn) [Compound 10] |  | 6.28 | Example C2 cAMP (antagonism) pIC50 [2]: 6.38 |
| CC(c1ccccc1)n1nnc2ccc(C(c3ccc(Cl)cc3)n3ccnc3)cc21 (stereo not drawn) [Compound 11] |  | 5.67 |  |
| CC(C)n1nnc2ccc(C(c3ccc(Cl)cc3)n3ccnc3)cc21 (stereo not drawn) [Compound 12] |  | 5.53 |  |
| Clc1ccc(C(c2ccc3nnn(Cc4ccccc4)c3c2)n2ccnc2)cc1 (stereo not drawn) [Compound 13] |  | 5.61 |  |
